Test results as given in PubChem BioAssay (NCI).
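All cell lines were grown in 96-well plates and treated with compound for 48 hours. GI50: concentration for 50% inhibition of growth. TGI: concentration producing complete growth inhibition.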

Assays:
Assay in all cases: NCI anticancer screen, dose series, 48 h
UACC-62 melanoma = system: UACC-62 melanoma
A549 NSCLC = system: A549 NSCLC
SK-MEL-28 melanoma = system: SK-MEL-28 melanoma
KM12 colon = system: KM12 colon
NCI-H226 lung = system: NCI-H226 lung
MOLT-4 leukemia = system: MOLT-4 leukemia
UACC-257 melanoma = system: UACC-257 melanoma
SK-MEL-2 melanoma = system: SK-MEL-2 melanoma
ACHN renal = system: ACHN renal
EKVX NSCLC = system: EKVX NSCLC

SMILES | GI50 (UACC-62 melanoma) [µM] | TGI (UACC-62 melanoma) [µM] | GI50 (A549 NSCLC) [µM] | TGI (A549 NSCLC) [µM] | GI50 (SK-MEL-28 melanoma) [µM] | TGI (SK-MEL-28 melanoma) [µM] | GI50 (KM12 colon) [µM] | TGI (KM12 colon) [µM] | GI50 (NCI-H226 lung) [µM] | TGI (NCI-H226 lung) [µM] | GI50 (MOLT-4 leukemia) [µM] | TGI (MOLT-4 leukemia) [µM] | GI50 (UACC-257 melanoma) [µM] | TGI (UACC-257 melanoma) [µM] | GI50 (SK-MEL-2 melanoma) [µM] | TGI (SK-MEL-2 melanoma) [µM] | GI50 (ACHN renal) [µM] | TGI (ACHN renal) [µM] | GI50 (EKVX NSCLC) [µM] | TGI (EKVX NSCLC) [µM]
CCC[CH2][Sn]([CH2]CCC)([O]C(=O)c1cc(F)cc(F)c1)[O][Sn]([CH2]CCC)([CH2]CCC)[O]C(=O)c1cc(F)cc(F)c1 | 1.4 | 2.7 | 9.78 | 21.8 | 1.14 | 2.38 | 3.58 | 12.4 | 1.45 | 2.81 | 0.318 | 2.15 | 1.11 | 2.34 | 1.02 | 2.2 | 1.51 | 2.83 | 1.31 | 2.59
OC1CCC[C@@H]1Sc1ccccc1 (stereo partly specified) |  | > 100 |  | > 100 |  | > 100 |  | > 100 |  |  |  | > 100 |  | > 100 |  | > 100 |  | > 100 |  | > 100
CCOC(=O)c1c2cccccc2n2c(=O)cc(C)nc12 |  | > 100 |  | > 100 |  | > 100 |  | > 100 |  | > 100 |  | > 100 |  | > 100 |  | > 100 |  | > 100 |  | > 100
COC(=O)C1=C(C(=O)OC)C2OC1c1cc3ccccc3cc12 |  | 27.9 |  | 37 |  | 4.09 |  | > 58.1 |  | 11.6 |  | 3.22 |  | 17.5 |  | 29.5 |  | 3.03 |  | 17.6
O=C(NNC(=S)Nc1ccccc1)c1ccccn1 |  |  | 1.56 | 47.7 | 2.8 | > 100 | 3.9 | > 100 | 3.3 | > 100 | 2.84 | > 100 | 2.53 | 21.2 | 9.74 | > 100 | 1.22 | > 100 |  | 
O=C(O)CCSC(=S)Nc1cccc(F)c1 |  | 29.5 |  | > 100 |  | 83.1 |  | > 100 |  | > 100 |  | > 100 |  | 53.2 |  |  |  | 83.3 |  | 81.8
CCOC(=O)c1cc(-c2ccc(OC)c(OC)c2)[nH]c1N/N=C/c1c(Cl)cccc1Cl | 0.704 | 6.64 | 3.06 | > 100 | 1.12 | > 100 | 0.636 | 9.98 | 1.81 | 9.36 | 3.27 | > 80.9 | 13.2 | > 71.9 | 7.28 | 48.6 | 3.23 | 16.2 | 5.37 | 19.9
O=C(O)CCSC(=O)Nc1ccccc1Cl |  | > 100 |  | > 100 |  | > 100 |  | > 100 |  | > 100 |  | > 100 |  | > 100 |  |  |  | > 100 |  | > 100
CC1CCc2c(c(CC3CC(=O)NC(=O)C3)nn2-c2ccccc2)C1 (stereo unspecified) |  | > 100 |  | > 100 |  | > 100 |  | > 100 |  | > 100 |  | > 100 |  | > 100 |  | > 100 |  | > 100 |  | > 100
COC(=O)C(=O)C(C(=O)C=C(C)C)C(=O)C(=O)Nc1nc2ccc([N+](=O)[O-])cc2s1 (stereo unspecified) |  | > 100 |  | > 100 |  | > 100 |  | > 100 |  | > 100 |  | > 100 |  | > 100 |  | > 100 |  | > 100 |  | > 100
C=C1C(=O)OC2CC3(C)CCCC(C)C3=CC12 (stereo unspecified) |  | 16.2 |  | 26.8 |  | 12.2 |  | 25.1 |  | 30.3 |  | 9.04 |  | 18.1 |  | 28.5 |  | 10.4 |  | 24.3
CC(O)CN1c2ccccc2Sc2ccc(Cl)cc21 (stereo unspecified) |  | > 10 |  | > 10 |  | > 10 |  | > 10 |  | > 10 |  | > 10 |  | > 10 |  | > 10 |  | > 10 |  | > 10
Cc1ccc(NC(=O)CC/C(CC(=O)C(C)(C)C)=N\Nc2ccc([N+](=O)[O-])cc2[N+](=O)[O-])cc1C |  | > 100 |  | > 100 |  | > 100 |  | > 100 |  | > 100 |  | > 100 |  | > 100 |  | > 100 |  | > 100 |  | > 100
COc1cc(CC(C(=O)O)C(=O)O)c(OC)cc1CC(C(=O)O)C(=O)O |  | > 100 |  | > 100 |  |  |  | > 100 |  | > 100 |  | > 100 |  | > 100 |  |  |  |  |  | > 100
CC1=C2[C@H](c3ccccc3)C3C=CC2(c2ccccc23)N(C(=O)C(c2ccccc2)c2ccccc2)C1=O (stereo partly specified) |  | > 100 |  | > 100 |  | > 100 |  | > 100 |  |  |  | > 100 |  | > 100 |  |  |  | > 100 |  | > 100
COC(=O)C(C(=O)C(=O)Nc1ccc(OC)cc1[N+](=O)[O-])c1nc2cc(C)c(C)cc2[nH]c1=O (stereo unspecified) |  | > 100 |  | > 100 |  | > 100 |  |  |  | > 100 |  |  |  | > 100 |  |  |  | > 100 |  | > 100
COc1ccc(/C=C2\CC(C)CC3C2=NN(c2ccccc2)C3c2ccc(OC)c(OC)c2)cc1OC (stereo unspecified) | 4.29 | 17.3 | 5.72 | > 100 | 4.87 | 18.3 |  |  | 3.09 | 9.75 | 2.69 | 92.4 | 7.94 | > 100 | 8.8 | > 100 | 4.48 | 48.6 | 5.61 | > 100
COc1ccc(CNc2cnc3cc(N)cc(N)c3n2)cc1 | 18.1 | 32.4 | 23 | 54.1 | 58 | > 100 | 23.5 | 67.6 |  |  | 15.9 | 43.2 | 21.4 | 39.7 | 23.9 | 76.3 | 17.2 | 32.2 | 14.4 | 31.1
